Laboratory results from patent publication US20230212122A1, “MITOCHONDRIAL TARGETING COMPOUNDS FOR THE TREATMENT OF ASSOCIATED DISEASES” (The Regents of the University of Michigan, priority 2020, published 2023).

Tested on: UM16 cell line
Experiment: GSEA of proteomics data ([…], KEGG pathways)
Type: cell-based
Settings: 5 μM, 24 hours
Description: Several proteins participating in energy metabolism were dramatically changed.

[1] = HALLMARK_IL2_STAT5_SIGNALING, FDR q-val 0.552
[2] = HALLMARK_MITOTIC_SPINDLE, FDR q-val 0.529
[3] = HALLMARK_MYC_TARGETS_V1, FDR q-val 0.006
[4] = HALLMARK_MYC_TARGETS_V2, FDR q-val 0.264
[5] = HALLMARK_MYOGENESIS, FDR q-val 0.467
[6] = HALLMARK_OXIDATIVE_PHOSPHORYLATION, FDR q-val 0.711
[7] = HALLMARK_P53_PATHWAY, FDR q-val 0.146
[8] = HALLMARK_PEROXISOME, FDR q-val 0.645
[9] = HALLMARK_PROTEIN_SECRETION, FDR q-val 0.862
[10] = HALLMARK_SPERMATOGENESIS, FDR q-val 0.851
[11] = HALLMARK_TGF_BETA_SIGNALING, FDR q-val 0.771
[12] = HALLMARK_TNFA_SIGNALING_VIA_NFKB, FDR q-val 0.457
[13] = HALLMARK_UNFOLDED_PROTEIN_RESPONSE, FDR q-val 0.070
[14] = HALLMARK_UV_RESPONSE_DN, FDR q-val 0.510
[15] = HALLMARK_XENOBIOTIC_METABOLISM, FDR q-val 0.488
[16] = KEGG_ADIPOCYTOKINE_SIGNALING_PATHWAY, FDR q-val 0.903
[17] = KEGG_ARGININE_AND_PROLINE_METABOLISM, FDR q-val 0.668
[18] = KEGG_B_CELL_RECEPTOR_SIGNALING_PATHWAY, FDR q-val 0.813
[19] = KEGG_CARDIAC_MUSCLE_CONTRACTION, FDR q-val 0.900
[20] = KEGG_CYTOSOLIC_DNA_SENSING_PATHWAY, FDR q-val 0.907
[21] = KEGG_FC_EPSILON_RI_SIGNALING_PATHWAY, FDR q-val 0.825
[22] = KEGG_GAP_JUNCTION, FDR q-val 0.898
[23] = KEGG_GLYCEROLIPID_METABOLISM, FDR q-val 0.663
[24] = KEGG_GLYCOLYSIS_GLUCONEOGENESIS, FDR q-val 0.889
[25] = KEGG_INOSITOL_PHOSPHATE_METABOLISM, FDR q-val 0.852
[26] = KEGG_INSULIN_SIGNALING_PATHWAY, FDR q-val 0.872
[27] = KEGG_LYSINE_DEGRADATION, FDR q-val 0.914
[28] = KEGG_MELANOGENESIS, FDR q-val 0.638
[29] = KEGG_NON_SMALL_CELL_LUNG_CANCER, FDR q-val 0.894
[30] = KEGG_NUCLEOTIDE_EXCISION_REPAIR, FDR q-val 0.829
[31] = KEGG_PATHWAYS_IN_CANCER, FDR q-val 0.858
[32] = KEGG_PEROXISOME, FDR q-val 0.839
[33] = KEGG_PROP_ANOATE_METABOLISM, FDR q-val 0.889
[34] = KEGG_PURINE_METABOLISM, FDR q-val 0.909
[35] = KEGG_VIRAL_MYOCARDITIS, FDR q-val 0.832

## CCOC(=O)[C@@H]1CCCN(S(=O)(=O)c2ccc(S(=O)(=O)N(CC)CC)cc2)C1 [DX2-201, ethyl (R)-1-((4-(N,N-diethylsulfamoyl)phenyl)sulfonyl)piperidine-3-carboxylate]
HALLMARK_HYPOXIA, FDR q-val 0.003
  NES: 1.851
[1]
  ES: 0.384
  NES: 1.176
[2]
  ES: 0.348
  NES: 1.170
[3]
  ES: −0.424
  NES: −1.975
[4]
  ES: −0.329
  NES: −1.215
[5]
  ES: −0.285
  NES: −1.077
[6]
  ES: −0.214
  NES: −0.938
[7]
  ES: −0.323
  NES: −1.338
[8]
  ES: 0.347
  NES: 1.037
[9]
  ES: −0.207
  NES: −0.842
[10]
  ES: −0.229
  NES: −0.803
[11]
  ES: −0.296
  NES: −0.944
[12]
  ES: 0.448
  NES: 1.335
[13]
  ES: −0.372
  NES: −1.517
[14]
  ES: 0.433
  NES: 1.256
[15]
  ES: 0.393
  NES: 1.244
[16]
  ES: 0.390
  NES: 1.046
KEGG_ANTIGEN_PROCESSING_AND_PRESENTATION, FDR q-val 0.792
  NES: −0.917
[17]
  ES: 0.543
  NES: 1.389
KEGG_BASAL_TRANSCRIPTION_FACTORS, FDR q-val 0.687
  NES: −1.121
[18]
  ES: 0.504
  NES: 1.432
[19]
  ES: 0.469
  NES: 1.177
KEGG_CELL_CYCLE, FDR q-val 0.828
  NES: −0.995
KEGG_CITRATE_CYCLE_TCA_CYCLE, FDR q-val 0.422
  NES: −1.416
[20]
  ES: 0.469
  NES: 1.166
KEGG_DNA_REPLICATION, FDR q-val 0.844
  NES: −0.919
KEGG_ERBB_SIGNALING_PATHWAY, FDR q-val 0.821
  NES: 1.410
[21]
  ES: 0.593
  NES: 1.623
[22]
  ES: 0.386
  NES: 1.041
[23]
  ES: 0.572
  NES: 1.376
[24]
  ES: 0.394
  NES: 1.086
[25]
  ES: 0.520
  NES: 1.277
[26]
  ES: 0.352
  NES: 1.077
[27]
  ES: 0.381
  NES: 1.007
[28]
  ES: 0.534
  NES: 1.369
[29]
  ES: 0.415
  NES: 1.092
[30]
  ES: 0.469
  NES: 1.271
KEGG_N_GLYCAN_BIOSYNTHESIS, FDR q-val 0.658
  NES: −1.160
KEGG_PARKINSONS_DISEASE, FDR q-val 0.702
  NES: −1.180
[31]
  ES: 0.324
  NES: 1.074
[32]
  ES: 0.459
  NES: 1.302
[33]
  ES: 0.424
  NES: 1.079
KEGG_PROTEASOME, FDR q-val 0.605
  NES: −1.425
KEGG_PROTEIN_EXPORT, FDR q-val 0.625
  NES: −1.116
[34]
  ES: 0.331
  NES: 1.023
KEGG_RIBOSOME, FDR q-val 0.003
  NES: −2.132
KEGG_RNA_DEGRADATION, FDR q-val 0.672
  NES: −1.228
KEGG_SPLICEOSOME, FDR q-val 0.541
  NES: −1.319
KEGG_VIBRIO_CHOLERAE_INFECTION, FDR q-val 0.754
  NES: −1.044
[35]
  ES: 0.497
  NES: 1.292
